Test: xn = mol fraction of the nth substance listed
Settings: 100 kPa

CCCCCCCCO + COC(=O)OC
viscosity [mPa·s]
Settings	293.15 K	298.15 K	303.15 K	308.15 K	313.15 K	318.15 K	323.15 K
x2 = 0.1	–	–	4.529	3.905	3.388	2.951	2.59
x2 = 0.1003	6.22	5.35	4.58	3.94	3.41	2.97	2.61
x2 = 0.1999	–	–	3.34	2.917	2.56	2.263	–
x2 = 0.2001	4.4	3.86	3.45	2.93	2.61	2.24	1.99
x2 = 0.2997	3.28	2.87	2.52	2.22	1.97	1.76	1.58
x2 = 0.3	–	–	2.516	2.22	1.971	1.763	–
x2 = 0.3999	–	–	1.931	1.73	1.547	1.395	–
x2 = 0.4005	2.44	2.14	1.9	1.69	1.5	1.35	1.22
x2 = 0.5	–	–	1.505	1.358	1.229	1.119	–
x2 = 0.5004	1.83	1.63	1.46	1.31	1.18	1.08	0.98
x2 = 0.5996	1.39	1.25	1.13	1.03	0.94	0.86	0.8
x2 = 0.6	–	–	1.183	1.079	0.984	0.903	–
x2 = 0.7	–	–	0.959	0.88	0.814	0.754	–
x2 = 0.7001	1.08	0.98	0.9	0.83	0.77	0.71	0.66
x2 = 0.7999	–	–	0.765	0.711	0.662	0.617	–
x2 = 0.8001	0.85	0.78	0.72	0.67	0.62	0.58	0.54
x2 = 0.9	–	–	0.633	0.591	0.554	0.523	–
x2 = 0.9005	0.66	0.61	0.58	0.54	0.51	0.48	0.45
